Where no end group is shown, it is not given here.

The test system of test [1] is OCT4 S236 phosphorylation in cell lines. The test is described as follows: Immunofluorescence staining of OCT4 phosphorylation after cell permeable peptide treatment. The note with it: cell permeable peptide 10 uM in cell culture solution, 2 days or more; immunofluorescence staining (FIG. 21). Type of test: cell-based.
The subject of test [2] is OCT4 S236 phosphorylation in NCCIT and NTERA-2 cell lines. Description: Okadaic acid (PP1 inhibitor) treatment, western blotting and immunofluorescence staining of OCT4 S236 phosphorylation. To be noted: NCCIT and NTERA-2 treated with okadaic acid; western blotting and immunofluorescence (FIGS. 10, 11). Type of test: cell-based, human.
Test [3] concerns OCT4 phosphorylation in NCCIT cell line. The test is described as follows: Western blotting of OCT4 phosphorylation in NCCIT cell line transformed with peptide vectors. The test is classed as cell-based, human. To be noted: vector-expressed peptide, cultured 36 to 48 hours, western blotting quantified with ImageJ (FIG. 16). An excerpt:
In order to confirm the link between the phosphorylation of an octamer-binding transcription factor 4 (OCT4) protein and stemness, first, a cell line expressing OCT4 substituted with 236D as an OCT4 S236 phosphorylation mimetic mutant was constructed. For construction of cells, a lentivirus expressing short hairpin RNA ([…], SEQ ID NO: 1) and a puromycin resistance gene in a doxycycline-dependent manner was constructed, and primarily, NCCIT(ATCC® CRL-2073™) and NTERA-2 (ATCC® CRL-1973™), which are cancer stem cell lines, were transfected with the lentivirus. Then, a plasmid recombinant for expressing OCT4 wild type and blasticidine resistance genes, or OCT4 substituted with 236D which is a phosphorylation mimetic of OCT4 and blasticidine resistance genes in a pCAG-Flag-B/S vector was secondarily transfected into the transfected cell line using Lipofectamine 3000 (Thermo Fisher). […]
After an NCCIT cell line was transformed by inserting the vector constructed by the method in Example 5 into the NCCIT cell line using Lipofectamine 3000, and then cultured for 36 hours to 48 hours, western blotting was performed in the same manner as in Example 2.1. The quantification of western blotting was analyzed using ImageJ. […]

For the next test, the system named is PP1 protein. Description: Fluorescence polarization binding of FITC-bound peptides to purified PP1 protein. As to the method: Peptides in which FITC was bound to Helix-1, Helix-2, and Helix-3 in Example 4 were synthesized.
The peptides were uniformly aliquoted at a final concentration of 20 nM into a fluorescence polarization reaction buffer solution (10 mM HEPES pH7.5, 50 mM NaCl, 1 mM DTT, 1 mM EDTA, and 0.0025% Tween 20), a purified PP1 protein was added thereto, and then the resulting mixture was reacted for 30 minutes, and the results of measuring fluorescence polarization using TECAN Infinite F200 Pro are illustrated in FIG. 19.
The binding powers of Helix 3-1 (SEQ ID NO: 14), Helix 3-2 (SEQ ID NO: 15), Helix 3-3 (SEQ ID NO: 13), and Helix 3 were compared by narrowing the sequence involved in binding to PP1 in the Helix-3 sequence (SEQ ID NO: 11) consisting of 19 amino acids.
(In fluorescence polarisation assays a small probe gives low polarisation when free and higher when bound to something large.)

Turning to “11R-GGG-VVRVWFCNRRQK: Cell permeable peptide to which the sequence of Helix-3-3 was linked: RRRRRRRRRRRGGGVVRVWFCNRRQK (Cell penetrating peptide CPP H3-3)”, in test [1], the “phosphorylation of OCT4” value is recorded as “increase in phosphorylation of OCT4”.
In the case of `C=C1[C@@H](O)[C@@H]2O[C@]3(CC[C@H](/C=C/[C@@H](C)[C@@H]4CC(C)=C[C@@]5(O[C@H](C[C@@](C)(O)C(=O)O)CC[C@H]5O)O4)O3)CC[C@H]2O[C@@H]1[C@@H](O)C[C@H](C)[C@H]1O[C@@]2(CCCCO2)CC[C@H]1C` [okadaic acid], the “phosphorylation of OCT4” value in test [2] was “the phosphorylation of OCT4 was increased”.
On to “Helix 1-3: Amino acid sequence NRVRGNLENLFLQCPKPTLQQISHIAQQLGLEKDVVRVWFCNRRQKGKRS; OCT4 function-inhibiting peptide, expressed from pCAG-F-puro vector (Helix 1-3)”, for which, in test [3], the “phosphorylation of OCT4” value is “the highest”.
Turning to “Helix 1: Amino acid sequence NRVRGNLENL; OCT4 function-inhibiting peptide (also: FITC label (site not given here))”, in test [3], the “phosphorylation of OCT4” value is listed as “the highest”.
Consider “Helix 3-3: Amino acid sequence VVRVWFCNRRQK; consisting of 12 amino acids (Helix 3-3)”, for which the “binding power to PP1 compared with Helix-3” value with PP1 protein (FITC-bound peptides, fluorescence polarization (FIG. 20)) is given as “the same binding power as that of Helix-3”.
Consider “Helix 3: Amino acid sequence KDVVRVWFCNRRQKGKRSS; OCT4 function-inhibiting peptide consisting of 19 amino acids (Helix 3)”, for which, in the test with PP1 protein (FITC-bound peptide 20 nM, purified PP1 protein added, 30 minutes (FIG. 19)), the “binding to PP1 (fluorescence polarization values)” value is on record as “bound”.

The record behind these values is US11717556B2, “Stemness-suppressing composition comprising OCT4 function-inhibiting peptide” (NATIONAL CANCER CENTER, priority 2018, dated 2023).
